Measurements reported in US20080181874A1, “CELL COMPOSITION AND METHOD FOR TREATING CANCER” (priority 2007, published 2008).

What was measured:
[1] = system: viable tumor cells from the right chest wall lesion (mammary carcinoma cells); test: In vitro drug response of fresh tumor cells (DISC, MTT and redox assays); type: cell-based, human; design: key to ASSAY RESULT: Sensitive: A cancer cell is said to be sensitive to a drug when the drug inhibits the cell growth or proliferation of the cell to a greater degree than is expected for an appropriate control; Resistant: A cancer cell is said to be sensitive to a drug when the drug inhibits the cell growth or proliferation of the cell to a lesser degree than is expected for an appropriate control; conditions: for ASSAY RESULT: compared with a database of assays with similar technical characteristics; for ASSAY PREDICTED RESPONSE PROBABILITY: predicted from the assay result; for activity in vitro (in words): summary of the table
Procedure: An unfixed portion of the tumor was further analyzed for response to several drugs. A specimen consisted of 1 piece of yellow, white, and red tissue, obtained from the right chest wall lesion. The piece was soft and sticky in texture, measured 0.8×1.4 cm, and weighed 0.47 gm. The specimen was minced to individual pieces smaller than one mm with surgical scissors and digested for 1.3 hours with collagenase-DNAse. Viable tumor cells were enriched by Ficoll-diatriozate centrifugation. Cytospin slides were prepared, air-dried, and stained with Fast Green/Hamatoxyline-eosin. On this cytology preparation obtained from mechanically-dissociated, enzyme-digested tissue, there was a collection of somewhat pleomorphic tumor cells, consistent with mammary carcinoma cells. Tumor cells were present as loose cell clusters (60% of total tumor cells) and, less commonly, as discohesive single cells (40% of total tumor cells). The tumor cells measured 22-25 microns in diameter and had N/N+C ratios of 0.6-0.8. […] Nucleoli were variably prominent. There were no cells with large clear globular areas or secretory material within the cytoplasm. There was slight cytoplasmic and nuclear molding. Approximately 40% of the enriched tumor cell fraction consisted of normal-appearing connective tissue cells and inflammatory cells.
Cells were plated for testing in 3 different assay endpoints. In the DISC assay, the entire contents of the cell culture were cytocentrifuged onto permanent microscope slides and differentially stained to allow discrimination of normal and neoplastic cells and living and dead cells. […] The MTT assay measures mitochondrial metabolism in the entire cell culture. The redox assay measures total metabolic activity in the entire cell culture, using the Alamar Blue reagent to index the oxygen reduction potential of the culture medium. Because of the very low yield of viable tumor cells, only a small drug panel could be tested. Additionally, some drugs could be tested only in a single assay system.
At the conclusion of the culture period, there was 10% spontaneous attrition in viable tumor cell numbers. Formazan signal in the MTT assay was moderate, reflective of moderate cell metabolism, and allowing for an MTT assay of good quality. Percentage of tumor cells as a percentage of total viable cells at the conclusion of the culture was approximately 85. DISC and MTT assays were in reasonably good agreement. The overall technical quality of the assays was good, marred only by the low yield of tumor cells, which severely limited the scope of testing.
Results were compared with a database of assays which had similar technical characteristics, as the technical characteristics of these assays influence the in vitro results, along with the intrinsic drug resistance of the tumor cells. By controlling for technical characteristics such as spontaneous cell loss, metabolic signal at the conclusion of the culture, and tumor cell clustering, biological correlations are improved.

[2] = system: patients with very advanced stage IV breast cancer; conditions: components of the vaccine regimen, one patient each
Procedure: Breast cancer patients treated with a composition comprising AKCV-1 cells (administered in conjunction with GM-CSF) were evaluated. […] A small cohort of patients with very advanced stage 1V breast cancer were treated with a vaccine consisting of 10-20×10^6 viable, irradiated tumor cells (AKCV-1) admixed with an equal number of cryopreserved peripheral blood lymphocytes obtained by leukapheresis. Patients were pretreated with low-dose cyclophosphamide 300 mg/m^2 48-72 hrs prior to vaccine and received subcutaneous injections of GM-CSF just prior, and for 8 days after, vaccine inoculation.

Compound	ASSAY RESULT [1]	ASSAY PREDICTED RESPONSE PROBABILITY [1]	activity in vitro (in words) [1]	best drug in vitro ([1]; ranking among the drugs tested)	Toxicity [2]
N.N.[Cl][Pt][Cl] [Cisplatin]	Intermediate	30			
COc1cc([C@@H]2c3cc4c(cc3[C@@H](O[C@@H]3O[C@@H]5CO[C@@H](C)O[C@H]5[C@H](O)[C@H]3O)[C@H]3COC(=O)[C@H]23)OCO4)cc(OC)c1O [Etoposide]	Sensitive	55	above-average activity		
CCC1=C[C@@H]2CN(C1)Cc1c([nH]c3ccccc13)[C@@](C(=O)OC)(c1cc3c(cc1OC)N(C)[C@H]1[C@@](O)(C(=O)OC)[C@H](OC(C)=O)[C@]4(CC)C=CCN5CC[C@]31[C@@H]54)C2 [Vinorelbine]	Intermediate	30			
CC(=O)O[C@H]1C(=O)[C@@]2(C)[C@H]([C@H](OC(=O)c3ccccc3)[C@]3(O)C[C@H](OC(=O)[C@H](O)[C@@H](NC(=O)c4ccccc4)c4ccccc4)C(C)=C1C3(C)C)[C@]1(OC(C)=O)CO[C@@H]1C[C@@H]2O [Taxol (Paclitaxel), Paclitaxel]	Sensitive	62	above-average activity	best drug in vitro	
GM-CSF: granulocyte macrophage colony stimulating factor, given as subcutaneous injections					increasing ascites and abdominal discomfort
N.N.O=C([O-])C1(C(=O)[O-])CCC1.[Pt+2] [(4HC) Carboplatin, Carboplatin]	Resistant	5	poor activity		
COc1cccc2c1C(=O)c1c(O)c3c(c(O)c1C2=O)C[C@@](O)(C(=O)CO)C[C@@H]3O[C@H]1C[C@H](N)[C@H](O)[C@H](C)O1 [Doxorubicin]	Intermediate	30			
O=P1(N(CCCl)CCCl)NCCCO1 (centres unmarked) [Cyclophosphamide]	Sensitive	55	above-average activity		exacerbation of pericardial effusion and atrial fibrillation, which spontaneously resolved
O=c1[nH]cc(F)c(=O)[nH]1 [Fluorouracil]	Intermediate	20			
